Results as given in publication PMC5601486, “Identification of 4-phenylquinolin-2(1H)-one as a specific allosteric inhibitor of Akt” (Scientific Reports, 2017).

Columns and labels:
CSK = test: KINOMEscan; conditions: 50000 nM
Experimental: KINOMEscan™ selectivity screen
(§1) The assay was perfor med at DiscoveRx Corporation according the methods published previously5. Briefly, Kinase-tagged T7 phage strains were grown in parallel in an E. coli host derived from the BL21 strain. E. coli were grown to log-phase and infected with T7 phage from a frozen stock and incubated with shaking at 32°C until lysis (90-150 minutes). The kinases were produced in HEK-293 cells and subsequently tagged with DNA for qPCR detection. Streptavidin-coated magnetic beads were treated with biotinylated small molecule ligands to generate affinity resins for kinase
(§2) inhibitor or DMSO control was performed in polypropylene 384-well plates for 1 hr at room temperature. After wash with PBS buffer containing 0.05% Tween 20, the beads were incubated in elution buffer (PBS containing 0.05 % Tween 20 and 0.5 μM non-biotinylated affinity ligand) for 30 minutes at room temperature. The kinase concentration in the eluates was measured by qPCR.

EPHA1 = test: KINOMEscan; conditions: 50000 nM
Experimental: KINOMEscan™ selectivity screen
as §1, §2

FLT3(ITD,D835V) = test: KINOMEscan; conditions: 50000 nM
Experimental: KINOMEscan™ selectivity screen
as §1, §2

[1] = test system: EGFR(L747-S752del, P753S); test: KINOMEscan; conditions: 50000 nM
Experimental: (§3) Briefly, Kinase-tagged T7 phage strains were grown in parallel in an E. coli host derived from the BL21 strain. E. coli were grown to log-phase and infected with T7 phage from a frozen stock and incubated with shaking at 32°C until lysis (90-150 minutes). The kinases were produced in HEK-293 cells and subsequently tagged with DNA for qPCR detection. Streptavidin-coated magnetic beads were treated with biotinylated small molecule ligands to generate affinity resins for kinase
as §2

PIK3CA(H1047Y) = test: KINOMEscan; conditions: 50000 nM
Experimental: KINOMEscan™ selectivity screen
as §1, §2

SIK2 = test: KINOMEscan; conditions: 50000 nM
Experimental: KINOMEscan™ selectivity screen
as §3, §2

OSR1 = test: KINOMEscan; conditions: 50000 nM
Experimental: KINOMEscan™ selectivity screen
as §3, §2

STK36 = test: KINOMEscan; conditions: 50000 nM
Experimental: KINOMEscan™ selectivity screen
as §1, §2

JNK3 = test: KINOMEscan; conditions: 50000 nM
Experimental: KINOMEscan™ selectivity screen
as §1, §2

BMPR1B = test: KINOMEscan; conditions: 50000 nM
Experimental: KINOMEscan™ selectivity screen
as §1, §2

BLK = test: KINOMEscan; conditions: 50000 nM
Experimental: KINOMEscan™ selectivity screen
as §3, §2

VEGFR2 = test: KINOMEscan; conditions: 50000 nM
Experimental: KINOMEscan™ selectivity screen
as §1, §2

GRK2 = test: KINOMEscan; conditions: 50000 nM
Experimental: KINOMEscan™ selectivity screen
as §3, §2

HIPK1 = test: KINOMEscan; conditions: 50000 nM
Experimental: KINOMEscan™ selectivity screen
as §3, §2

MEK3 = test: KINOMEscan; conditions: 50000 nM
Experimental: KINOMEscan™ selectivity screen
as §1, §2

ACVR1B = test: KINOMEscan; conditions: 50000 nM
Experimental: KINOMEscan™ selectivity screen
as §1, §2

CLK4 = test: KINOMEscan; conditions: 50000 nM
Experimental: KINOMEscan™ selectivity screen
as §1, §2

[2] = test system: ABL1(H396P)-phosphorylated; test: KINOMEscan; conditions: 50000 nM
Experimental: KINOMEscan™ selectivity screen
as §1, §2

FLT3(D835Y) = test: KINOMEscan; conditions: 50000 nM
Experimental: KINOMEscan™ selectivity screen
as §1, §2

PI3K = test system: T1, PI3K; test: ADP-Glo kinase assay; type: biochemical; conditions: 50 µM
T1 construct: purchased SignalChem P27-10H-05

PKC = test: Western blot of PKC phosphorylation; type: cell-based, Mouse; conditions: Neuro 2A cells
Experimental: Neuro 2A cells were seeded in 12-well plates in DMEM containing 5% FBS for 24 hr.
After overnight serum starvation (in 0% FBS DMEM), cells were incubated for 30 min at 37 °C with G7 or LY294002 or Torin 1 (Sigma Aldrich) at various concentrations, or DMSO control. IGF-1 was added to each well at a final concentration of 100 ng/mL. After 30-min incubation cells were washed with cold PBS and lysed with 50 µL lysis buffer containing 1% Triton X-100 and protease/phosphatase inhibitors (Cell Signaling Technology) or RIPA buffer (Santa Cruz Biotech). Samples were electrophoresed in 4–12% Bis-Tris gels (Life Technologies) at 150 V using MOPS SDS running buffer. Proteins were transferred electrophoretically to a PVDF or nitrocellulose membrane. For detection of cleaved […]
caspase 3 a Trans-Blot Turbo Transfer System (Bio-Rad, 25 V for 25 min) with PVDF membrane were used. […]
anti- GAPDH (14C10) antibody (#2118) (all antibodies were from Cell Signaling Technology unless indicated, 1:1000 dilution was used) at 4°C overnight, washed three times with TBS-T, then incubated with peroxidase-conjugated secondary antibody (Sigma-Aldrich) for 1 hr at room temperature. […] Band intensity was quantitated using Kodak 1D imaging analysis software. […]

HPK1 = test: KINOMEscan; conditions: 50000 nM
Experimental: KINOMEscan™ selectivity screen
as §1, §2

NIM1 = test: KINOMEscan; conditions: 50000 nM
Experimental: KINOMEscan™ selectivity screen
as §3, §2

LATS2 = test: KINOMEscan; conditions: 50000 nM
Experimental: KINOMEscan™ selectivity screen
as §3, §2

RIOK2 = test: KINOMEscan; conditions: 50000 nM
Experimental: KINOMEscan™ selectivity screen
as §1, §2

MAPKAPK5 = test: KINOMEscan; conditions: 50000 nM
Experimental: KINOMEscan™ selectivity screen
as §1, §2

EGFR(L858R,T790M) = test: KINOMEscan; conditions: 50000 nM
Experimental: KINOMEscan™ selectivity screen
as §1, §2

TESK1 = test: KINOMEscan; conditions: 50000 nM
Experimental: KINOMEscan™ selectivity screen
as §1, §2

CDK3 = test: KINOMEscan; conditions: 50000 nM
Experimental: KINOMEscan™ selectivity screen
as §3, §2

HIPK3 = test: KINOMEscan; conditions: 50000 nM
Experimental: KINOMEscan™ selectivity screen
as §3, §2

MARK3 = test: KINOMEscan; conditions: 50000 nM
Experimental: KINOMEscan™ selectivity screen
as §1, §2

MTOR = test: KINOMEscan; conditions: 50000 nM
Experimental: KINOMEscan™ selectivity screen
as §1, §2

LCK = test: KINOMEscan; conditions: 50000 nM
Experimental: KINOMEscan™ selectivity screen
as §1, §2

RIPK1 = test: KINOMEscan; conditions: 50000 nM
Experimental: KINOMEscan™ selectivity screen
as §1, §2

IRAK4 = test: KINOMEscan; conditions: 50000 nM
Experimental: KINOMEscan™ selectivity screen
as §3, §2

PFCDPK1(P.falciparum) = test system: T2, PFCDPK1(P.falciparum); test: KINOMEscan; type: binding; conditions: 50000 nM
T2 construct: purchased DiscoveRx KINOMEscan

RET(V804L) = test: KINOMEscan; conditions: 50000 nM
Experimental: KINOMEscan™ selectivity screen
as §1, §2

FAK = test: KINOMEscan; conditions: 50000 nM
Experimental: KINOMEscan™ selectivity screen
as §1, §2

Structure (SMILES): Oc1cc(-c2ccccc2)c2ccccc2n1 [G7, 4-phenylquinolin-2(1H)-one]
- Percent Control (CSK): 76%
- Percent Control (EPHA1): 89%
- Percent Control (FLT3(ITD,D835V)): 34%
- Percent Control [1]: 84%
- Percent Control (PIK3CA(H1047Y)): 100%
- Percent Control (SIK2): 78%
- Percent Control (OSR1): 87%
- Percent Control (STK36): 95%
- Percent Control (JNK3): 86%
- Percent Control (BMPR1B): 83%
- Percent Control (BLK): 79%
- Percent Control (VEGFR2): 67%
- Percent Control (GRK2): 91%
- Percent Control (HIPK1): 74%
- Percent Control (MEK3): 81%
- Percent Control (ACVR1B): 100%
- Percent Control (CLK4): 80%
- Percent Control [2]: 66%
- Percent Control (FLT3(D835Y)): 33%
- effect on PI3K activity (PI3K): no effects
- phosphorylation (activation status) of PKC (PKC): did not alter
- Percent Control (HPK1): 98%
- Percent Control (NIM1): 90%
- Percent Control (LATS2): 23%
- Percent Control (RIOK2): 83%
- Percent Control (MAPKAPK5): 81%
- Percent Control (EGFR(L858R,T790M)): 90%
- Percent Control (TESK1): 100%
- Percent Control (CDK3): 88%
- Percent Control (HIPK3): 65%
- Percent Control (MARK3): 87%
- Percent Control (MTOR): 100%
- Percent Control (LCK): 80%
- Percent Control (RIPK1): 100%
- Percent Control (IRAK4): 68%
- Percent Control (PFCDPK1(P.falciparum)): 83%
- Percent Control (RET(V804L)): 83%
- Percent Control (FAK): 93%
